The NIST ThermoML archive (doi:10.1021/acs.jced.5b00944)

Test: xn = mol fraction of the nth substance listed
Conditions: for speed of sound / mass density / viscosity: 100 kPa, Liquid; for speed of sound: Sing-around technique in a fixed-path interferometer; for mass density: Vibrating tube method; for surface tension liquid-gas: Capillary rise; for viscosity: Capillary tube (Ostwald / Ubbelohde) method

CCCC[N+]1(C)CCCC1.N#CN=C=[N-] [1-butyl-1-methylpyrrolidinium dicyanamide] + O
Conditions | mass density [kg/m3] | speed of sound [m/s] | surface tension liquid-gas [mN/m] | viscosity [mPa·s]
308.15 K, x2 = 0 | 1007.82 | – | – | –
308.15 K, x2 = 0.0329 | 1007.7 | 1785.2 | – | –
308.15 K, x2 = 0.0993 | 1007.45 | 1784.4 | – | –
308.15 K, x2 = 0.2615 | 1006.85 | 1783.8 | – | –
308.15 K, x2 = 0.4463 | 1005.97 | 1784.8 | – | –
308.15 K, x2 = 0.6509 | 1004.63 | 1785.9 | – | –
308.15 K, x2 = 0.751 | 1003.96 | 1781.8 | – | –
308.15 K, x2 = 0.9 | 999.99 | 1726.6 | – | –
312.9 K, x2 = 0.2615 | – | – | 50.6 | –
313.2 K, x2 = 0.751 | – | – | 52 | –
313.5 K, x2 = 0.4463 | – | – | 50.4 | –
313.8 K, x2 = 0.0994 | – | – | 51.1 | –
313.8 K, x2 = 0.6509 | – | – | 49.3 | –
313.9 K, x2 = 0.0329 | – | – | 50.3 | –
316.2 K, x2 = 0.9 | – | – | 52.2 | –
318.02 K, x2 = 0.0329 | – | – | – | 17.4
318.03 K, x2 = 0.4463 | – | – | – | 11
318.04 K, x2 = 0.751 | – | – | – | 5.47
318.05 K, x2 = 0.2615 | – | – | – | 14.4
318.05 K, x2 = 0.9 | – | – | – | 2.33
318.06 K, x2 = 0.0994 | – | – | – | 16.9
318.06 K, x2 = 0.6509 | – | – | – | 7.37
318.15 K, x2 = 0 | 1002.33 | 1761 | – | –
318.15 K, x2 = 0.0329 | 1002.21 | 1760.7 | – | –
318.15 K, x2 = 0.0993 | 1001.88 | 1760 | – | –
318.15 K, x2 = 0.2615 | 1001.22 | 1759.7 | – | –
318.15 K, x2 = 0.4463 | 1000.21 | 1761.1 | – | –
318.15 K, x2 = 0.6509 | 998.57 | 1762.5 | – | –
318.15 K, x2 = 0.751 | 997.71 | 1759.7 | – | –
318.15 K, x2 = 0.9 | 993.7 | 1711.2 | – | –
323.9 K, x2 = 0.0994 | – | – | 50.3 | –
324.1 K, x2 = 0.2615 | – | – | 49.6 | –
324.2 K, x2 = 0.751 | – | – | 51.1 | –
324.4 K, x2 = 0.9 | – | – | 51.7 | –
324.5 K, x2 = 0.4463 | – | – | 49.6 | –
324.6 K, x2 = 0.6509 | – | – | 48.9 | –
324.9 K, x2 = 0.0329 | – | – | 49.5 | –
333.04 K, x2 = 0.0329 | – | – | – | 12.1
333.07 K, x2 = 0.4463 | – | – | – | 7.72
333.07 K, x2 = 0.751 | – | – | – | 3.81
333.07 K, x2 = 0.9 | – | – | – | 1.68
333.08 K, x2 = 0.2615 | – | – | – | 10.1
333.09 K, x2 = 0.6509 | – | – | – | 5.14
333.1 K, x2 = 0.0994 | – | – | – | 11.7
333.15 K, x2 = 0 | 994.14 | 1724.7 | – | –
333.15 K, x2 = 0.0329 | 993.99 | 1724.4 | – | –
333.15 K, x2 = 0.0993 | 993.64 | 1723.9 | – | –
333.15 K, x2 = 0.2615 | 992.88 | 1724 | – | –
333.15 K, x2 = 0.4463 | 991.65 | 1725.6 | – | –
333.15 K, x2 = 0.6509 | 989.51 | 1727 | – | –
333.15 K, x2 = 0.751 | 988.31 | 1724.7 | – | –
333.15 K, x2 = 0.9 | 983.98 | 1684.9 | – | –
